{
  "source": "patent US20030013660A1",
  "about": "“Dioxolane analogs for improved inter-cellular delivery” (Shire BioChem Inc., priority 2000, published 2003)",
  "key": {"H-460 [1]": {"test_system": "H-460", "assay": "3H-TdR incorporation at 72 hr (24 hr drug exposure, wash, 48 hr)", "format": "cell-based, Human", "description": "(§1) Exposition of 24 hr to drug, wash, incubated for another 48 hr (total of 72 hr assay)\n(§2) (3H-Thymidine Incorporation Assay)"}, "CEM/dCK- [2]": {"test_system": "CEM/dCK-", "assay": "3H-TdR incorporation at 72 hr (24 hr drug exposure, wash, 48 hr)", "format": "cell-based", "description": "as §1, §2"}, "SF-268 [3]": {"test_system": "SF-268", "assay": "3H-TdR incorporation at 72 hr (24 hr drug exposure, wash, 48 hr)", "format": "cell-based, Human", "conditions": "Homo sapiens, SF-268, read-out: IC50 in μM (3H-TdR incorporation at 72 hr) SF-268 24 h, SF-268 Human Central Nervous System Tumor; 24 h drug exposure, 72 hr assay", "description": "as §1, §2"}, "MCF-7 [4]": {"test_system": "MCF-7", "assay": "3H-TdR incorporation at 72 hr (24 hr drug exposure, wash, 48 hr)", "format": "cell-based, Human", "conditions": "Homo sapiens, MCF7, read-out: IC50 in μM (3H-TdR incorporation at 72 hr) MCF-7 24 h, MCF-7 Human Breast Carcinoma, 72 hr assay", "description": "as §1, §2"}, "SF-268 [5]": {"test_system": "SF-268", "assay": "3H-TdR (3H-thymidine) incorporation assay at 72 hr", "format": "cell-based, Human", "conditions": "Homo sapiens"}, "MCF-7 [6]": {"test_system": "MCF-7", "assay": "3H-TdR (3H-thymidine) incorporation assay at 72 hr", "format": "cell-based, Human", "conditions": "Homo sapiens"}, "CEM/dCK- [7]": {"test_system": "CEM/dCK-", "assay": "3H-TdR (3H-thymidine) incorporation assay at 72 hr", "format": "cell-based", "conditions": "for IC50: Homo sapiens, CCRF-CEM; for Factor* (Resistance Factor = Ratio of dCK- on Wild-type CCRF-CEM): ratio of IC50 CEM/dCK- to CCRF-CEM, 24 h", "description": "(§3) Table of IC50 Values (μM) for Controls\nas §1, §2"}, "CCRF-CEM": {"test_system": "CCRF-CEM", "assay": "3H-TdR (3H-thymidine) incorporation assay at 72 hr", "format": "cell-based", "conditions": "Homo sapiens, CCRF-CEM", "description": "as §3, §1, §2"}, "H-460 [8]": {"test_system": "H-460", "assay": "3H-TdR (3H-thymidine) incorporation assay at 72 hr", "format": "cell-based, Human", "conditions": "Homo sapiens"}, "[9]": {"conditions": "Homo sapiens, NCI-H460, read-out: IC50 in μM (3H-TdR incorporation at 72 hr) H-460 24 h, H-460 Human Lung Carcinoma, 72 hr assay"}, "[10]": {"conditions": "SF-268, read-out: IC50 SF-268 24 h, 24 h drug exposure, wash, another 48 hr, 3H-TdR incorporation at 72 hr"}, "[11]": {"conditions": "MCF7, read-out: IC50 MCF-7 24 h, 24 h drug exposure, wash, another 48 hr, 3H-TdR incorporation at 72 hr"}, "[12]": {"conditions": "read-out: IC50 CEM/dCK- 24 h, 24 h drug exposure, wash, another 48 hr, deoxycytidine kinase-deficient CCRF-CEM"}, "[13]": {"conditions": "read-out: IC50 CCRF-CEM 24 h, 24 h drug exposure, wash, another 48 hr, 3H-TdR incorporation at 72 hr"}, "[14]": {"conditions": "NCI-H460, read-out: IC50 H-460 24 h, 24 h drug exposure, wash, another 48 hr, 3H-TdR incorporation at 72 hr"}},
  "note": "“And” between values parts separate entries of the source, which are not always exact repeats. Equal entries are not always repeated. Where two headings read alike, the source gives them in different places.",
  "data": [
    {"smiles": "Nc1ccn([C@@H]2CO[C@H](COC(=O)c3ccc(C(F)(F)F)cc3)O2)c(=O)n1", "note": "[Compound 189, 4-TRIFLUOROMETHYL- BENZOIC ACID 4-(4- AMINO-2-OXO-2H- PYRIMIDIN-1-YL)- [1,3]DIOXOLAN-2-YL METHYL ESTER]", "values": [
      {"measurement": "IC50", "setting": "H-460 [1]; read-out: IC50 in μM (3H-TdR incorporation at 72 hr) H-460 24 h, H-460 Human Lung Carcinoma, 72 hr assay", "value": 0.0012, "unit": "µM"},
      {"measurement": "Factor* (Resistance Factor = Ratio of dCK- on Wild-type CCRF-CEM)", "setting": "CEM/dCK- [2]; ratio of IC50 CEM/dCK- to IC50 CCRF-CEM", "value": "1333 and 1300"}
    ]},
    {"smiles": "CC(C)(C)C(=O)Oc1ccc(COC(=O)Nc2ccn([C@@H]3CO[C@H](CO)O3)c(=O)n2)cc1", "note": "[Compound 213, 2,2-DIMETHYL-PROPIONIC ACID 4-[1-(2- HYDROXYMETHYL- [1,3]DIOXOLAN-4-YL)-2- OXO-1,2-DIHYDRO- PYRIMIDIN-4- YLCARBAMOYLOXYMETHYL]- PHENYL ESTER]", "values": [
      {"measurement": "IC50", "setting": "SF-268 [3]", "value": 0.012, "unit": "µM"},
      {"measurement": "IC50", "setting": "MCF-7 [4]", "value": 0.00027, "unit": "µM"},
      {"measurement": "IC50", "setting": "H-460 [1]; [9]", "value": "≤ 0.0001", "unit": "µM"},
      {"measurement": "IC50", "setting": "CEM/dCK- [2]; Homo sapiens, CCRF-CEM, read-out: IC50 in μM (3H-TdR incorporation at 72 hr) CEM/dCK- 24 h, CCRF-CEM deoxycytidine kinase-deficient, 24 h drug exposure, 72 hr assay", "value": 1.1, "unit": "µM"}
    ]},
    {"smiles": "CC(=O)Oc1ccc(COC(=O)Nc2ccn([C@@H]3CO[C@H](CO)O3)c(=O)n2)cc1", "note": "[Compound 203, ACETIC ACID 4-[1-(2- HYDROXYMETHYL- [1,3]DIOXOLAN-4-YL)-2- OXO-1,2-DIHYDRO- PYRIMIDIN-4- YLCARBAMOYLOXYMETHYL]- PHENYL ESTER]", "values": [
      {"measurement": "IC50", "setting": "SF-268 [3]", "value": "< 0.0001", "unit": "µM"},
      {"measurement": "IC50", "setting": "MCF-7 [4]", "value": "< 0.0001", "unit": "µM"},
      {"measurement": "IC50", "setting": "H-460 [1]; [9]", "value": "< 0.0001", "unit": "µM"}
    ]},
    {"smiles": "CCCCC(C)C(=O)OC[C@H]1OC[C@@H](n2ccc(N)nc2=O)O1.Cl", "note": "(stereo partly drawn) [Compound 86, (2S,4S)-2-(2″-METHYL- HEXANOICOXYMETHYL)-4- CYTOSIN-1′-YL-1,3- DIOXOLANE HYDROCHLORIDE]", "values": [
      {"measurement": "IC50", "setting": "SF-268 [5]; [10]", "value": 0.013, "unit": "µM"},
      {"measurement": "IC50", "setting": "MCF-7 [6]; [11]", "value": 0.0019, "unit": "µM"},
      {"measurement": "IC50", "setting": "CEM/dCK- [7]; [12]", "value": 4, "unit": "µM"},
      {"measurement": "Factor* (Resistance Factor = Ratio of dCK- on Wild-type CCRF-CEM)", "setting": "CEM/dCK- [7]", "value": "3,636"},
      {"measurement": "IC50", "setting": "CCRF-CEM; [13]", "value": 0.0011, "unit": "µM"},
      {"measurement": "IC50", "setting": "H-460 [8]; [14]", "value": 0.002, "unit": "µM"}
    ]},
    {"smiles": "CN(C)/C=N/c1ccn([C@@H]2CO[C@H](COC(=O)Cc3ccc(N(C)C)cc3)O2)c(=O)n1", "note": "[Compound 143, (2S,4S)-2-(4″-N,N- DIMETHYLAMINOPHENYLACET OXY)METHYL-4-(4′-N,N- DIMETHYLAMINOMETHYLENE- CYTOSIN-1′-YL)-1,3- DIOXOLANE]", "values": [
      {"measurement": "IC50", "setting": "SF-268 [5]; [10]", "value": 0.14, "unit": "µM"},
      {"measurement": "IC50", "setting": "MCF-7 [6]; [11]", "value": 0.0037, "unit": "µM"},
      {"measurement": "IC50", "setting": "CEM/dCK- [7]; [12]", "value": 32, "unit": "µM"},
      {"measurement": "Factor* (Resistance Factor = Ratio of dCK- on Wild-type CCRF-CEM)", "setting": "CEM/dCK- [7]", "value": "8,205"},
      {"measurement": "IC50", "setting": "CCRF-CEM; [13]", "value": 0.0039, "unit": "µM"},
      {"measurement": "IC50", "setting": "H-460 [8]; [14]", "value": 0.012, "unit": "µM"}
    ]},
    {"smiles": "O=C(Nc1ccn([C@@H]2CO[C@H](CO)O2)c(=O)n1)Oc1ccc(Cl)cc1.O=C(O)C(F)(F)F", "note": "[Compound 104, [1-(2-HYDROXYMETHYL- [1,3]DIOXOLAN-4-YL)-2- OXO-1,2-DIHYDRO- […]-4-YL]- CARBAMIC ACID 4-CHLORO- PHENYL ESTER TRIFLUOROACETATE SALT]", "values": [
      {"measurement": "IC50", "setting": "SF-268 [5]; SF-268, read-out: IC50 SF-268 24 h", "value": 0.47, "unit": "µM"},
      {"measurement": "IC50", "setting": "MCF-7 [6]; MCF7, read-out: IC50 MCF-7 24 h", "value": 0.47, "unit": "µM"},
      {"measurement": "IC50", "setting": "CEM/dCK- [7]; read-out: IC50 CEM/dCK- 24 h", "value": "> 100", "unit": "µM"},
      {"measurement": "Factor* (Resistance Factor = Ratio of dCK- on Wild-type CCRF-CEM)", "setting": "CEM/dCK- [7]", "value": ">476"},
      {"measurement": "IC50", "setting": "CCRF-CEM; read-out: IC50 CCRF-CEM 24 h", "value": 0.21, "unit": "µM"},
      {"measurement": "IC50", "setting": "H-460 [8]; NCI-H460, read-out: IC50 H-460 24 h", "value": 0.27, "unit": "µM"}
    ]},
    {"smiles": "CCOC(=O)OC[C@H]1OC[C@@H](n2ccc(N)nc2=O)O1", "note": "[Compound 46, CARBONIC ACID 4-(4- AMINO-2-OXO-2H- PYRIMIDIN-1-YL)- [1,3]DIOXOLAN-2- YLMETHYL ESTER ETHYL ESTER]", "values": [
      {"measurement": "IC50", "setting": "SF-268 [5]; [10]", "value": 0.56, "unit": "µM"},
      {"measurement": "IC50", "setting": "MCF-7 [6]; [11]", "value": 0.16, "unit": "µM"},
      {"measurement": "IC50", "setting": "CEM/dCK- [7]; [12]", "value": "> 100", "unit": "µM"},
      {"measurement": "Factor* (Resistance Factor = Ratio of dCK- on Wild-type CCRF-CEM)", "setting": "CEM/dCK- [7]", "value": "1,667"},
      {"measurement": "IC50", "setting": "CCRF-CEM; [13]", "value": 0.06, "unit": "µM"},
      {"measurement": "IC50", "setting": "H-460 [8]; [14]", "value": 0.086, "unit": "µM"}
    ]},
    {"smiles": "CN(C)/C=N/c1ccn([C@@H]2CO[C@H](COC(=O)CC34CC5CC(CC(C5)C3)C4)O2)c(=O)n1", "note": "[Compound 129, (2S,4S)-2-(1″- ADMANTANEACETOXY)METHYL -4-(4′-N,N- DIMETHYLAMINOMETHYLENE- CYTOSIN-1′-YL)-1,3- DIOXOLANE]", "values": [
      {"measurement": "IC50", "setting": "SF-268 [5]; [10]", "value": 0.2, "unit": "µM"},
      {"measurement": "IC50", "setting": "MCF-7 [6]; [11]", "value": 0.02, "unit": "µM"},
      {"measurement": "IC50", "setting": "CEM/dCK- [7]; [12]", "value": 15, "unit": "µM"},
      {"measurement": "Factor* (Resistance Factor = Ratio of dCK- on Wild-type CCRF-CEM)", "setting": "CEM/dCK- [7]", "value": 208},
      {"measurement": "IC50", "setting": "CCRF-CEM; [13]", "value": 0.072, "unit": "µM"},
      {"measurement": "IC50", "setting": "H-460 [8]; [14]", "value": 0.15, "unit": "µM"}
    ]}
  ]
}
